From publication PMC6364417, “Kinase inhibitor library screening identifies synergistic drug combinations effective in sensitive and resistant melanoma cells” (Journal of Experimental & Clinical Cancer Research : CR, 2019)
Where two headings read alike, the source gives them in different places.

Legend:
501Mel cells (parental) = test: Kinase inhibitor library screening, PrestoBlue cell viability, 1 or 10 μM, 72 h; settings: 72 h
Summary of the method: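 Values are % viability versus untreated wells, measured by PrestoBlue after a 72 h drug exposure. Screens covered the parental line plus sublines rendered resistant to Vemurafenib or Dabrafenib, each analysed in at least duplicate.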

[1] = tested on: 501Mel-GP cells (Dabrafenib-resistant); test: as above; settings: 72 h
[2] = tested on: 501Mel-XP cells (Vemurafenib-resistant); test: as above; settings: 72 h
A375 cells (parental) [3] = test: as above
[4] = tested on: A375-GP cells (Dabrafenib-resistant); test: as above
[5] = tested on: A375-XP cells (Vemurafenib-resistant); test: as above
IGR37 cells (parental) = test: as above
[6] = tested on: IGR37-GP cells (Dabrafenib-resistant); test: as above
[7] = tested on: IGR37-XP cells (Vemurafenib-resistant); test: as above
A375 cells (parental) [8] = test: Dose-response curves and IC50, PrestoBlue cell viability, 72 h; format: cell-based, human; settings: read-out: Half-maximal inhibitory concentration value (IC50), Mean
[9] = tested on: A375-GP cells (Dabrafenib-resistant); test: as above; format: cell-based, human; settings: n.e. = did not suppress growth below 50% in the tested concentration range, read-out: Half-maximal inhibitory concentration value (IC50), Mean
A375 cells = test: Synergy determination with the Chou-Talalay method (CompuSyn), cell viability 72 h; format: cell-based, human; settings: 72 h cell viability, Chou-Talalay / Synergyfinder
Experimental: The Chou-Talalay method to determine possible synergistic effects of selected kinase inhibitor combinations was used as described in [19]. […] Cells were treated with either single inhibitors or combinations thereof at indicated amounts in technical triplicates. The amounts were pre-determined from each inhibitor’s IC50 value and inhibitors were assayed in a defined dilution series and at constant ratio when combined. […] Combination Index (CI) values showing either synergy (< 1) or antagonism (> 1) were calculated with the CompuSyn software (ComboSyn, Inc).

[10] = tested on: A375-XP cells (Vemurafenib-resistant); test: Dose-response curves and IC50, PrestoBlue cell viability, 72 h; format: cell-based, human; settings: n.e. = did not suppress growth below 50% in the tested concentration range, read-out: Half-maximal inhibitory concentration value (IC50), Mean
[11] = tested on: IGR37-GP cells (Dabrafenib-resistant); test: as above; settings: Homo sapiens, 72 h, read-out: Half-maximal inhibitory concentration (IC50)
Experimental: All inhibitors used in this study were purchased from Selleck Chemicals (Houston, USA). They were dissolved in DMSO to a stock concentration of 10 mM according to the manufacturer’s instructions and stored at − 80 °C. […] Cell viability was measured with the PrestoBlue Cell Viability Reagent (ThermoFisher Scientific) on a CLARIOstar Monochromator microplate reader (BMG Labtech). Using the GraphPad Prism v5.04 software, the half-maximal inhibitor concentration values (IC50) were determined from the curve using the nonlinear log (inhibitor) vs response-variable slope (four parameters) equation. […] The IC50’s were determined for 3 biological replicates and are listed with their standard deviations.
Values represent the mean of at least three biological replicates; one representative curve of at least 3 biological replicates is depicted. _XP: cells resistant to Vemurafenib (red), _GP: cells resistant to Dabrafenib (green).

[12] = Homo sapiens, A-375, n.e. = did not suppress growth below 50% in the tested concentration range
[13] = n.e. = did not suppress growth below 50% in the tested concentration range

Row | IC50 ([9]; Homo sapiens) [nM] | IC50 [10] [nM] | IC50 [9] [nM] | Structure (SMILES) | IC50 (A375 cells (parental) [8]; [12]) [nM] | IC50 (A375 cells (parental) [8]; [13]) [nM] | cell viability (kinase inhibitor library screening) (501Mel cells (parental); 501Mel Parental, 1μΜ) [%] | cell viability (kinase inhibitor library screening) (501Mel cells (parental); 501Mel Parental, 10μΜ) [%] | cell viability (kinase inhibitor library screening) ([1]; 501Mel GP, 10μΜ) [%] | cell viability (kinase inhibitor library screening) ([2]; 501Mel XP, 1μΜ) [%] | cell viability (kinase inhibitor library screening) ([2]; 501Mel XP, 10μΜ) [%] | cell viability (kinase inhibitor library screening) (A375 cells (parental) [3]; A375 Parental, 10μΜ, 72 h) [%] | cell viability (kinase inhibitor library screening) (A375 cells (parental) [3]; A375 Parental, 1μΜ, 72 h) [%] | cell viability (kinase inhibitor library screening) ([4]; A375 GP, 1μΜ, 72 h) [%] | cell viability (kinase inhibitor library screening) ([4]; A375 GP, 10μΜ, 72 h) [%] | cell viability (kinase inhibitor library screening) ([5]; A375 XP, 1μΜ, 72 h) [%] | cell viability (kinase inhibitor library screening) ([5]; A375 XP, 10μΜ, 72 h) [%] | cell viability (kinase inhibitor library screening) (IGR37 cells (parental); IGR37 Parental, 1μΜ, 72 h) [%] | cell viability (kinase inhibitor library screening) (IGR37 cells (parental); IGR37 Parental, 10μΜ, 72 h) [%] | cell viability (kinase inhibitor library screening) ([6]; IGR37 GP, 1μΜ, 72 h) [%] | cell viability (kinase inhibitor library screening) ([6]; IGR37 GP, 10μΜ, 72 h) [%] | further results
1 | 3.2 |  |  | Cc1cc(C(=O)NOCCO)c(Nc2ccc(I)cc2F)n(C)c1=O [AZD8330, reference compound] | 1.8 |  |  |  |  |  |  |  |  |  |  |  |  |  |  |  |  | viability at 1 µM (501Mel cells (parental); Homo sapiens, read-out: cell viability, 501Mel Parental, 1μΜ): 48.9%; viability at 10 µM (501Mel cells (parental); Homo sapiens, read-out: cell viability, 501Mel Parental, 10μΜ): 52.5%; viability at 1 µM ([1]; Homo sapiens, read-out: cell viability, 501Mel GP, 1μΜ): 86.3%; viability at 10 µM ([1]; Homo sapiens, read-out: cell viability, 501Mel GP, 10μΜ): 74.6%; viability at 1 µM ([2]; Homo sapiens, read-out: cell viability, 501Mel XP, 1μΜ): 69.7%; viability at 10 µM ([2]; Homo sapiens, read-out: cell viability, 501Mel XP, 10μΜ): 56.7%; viability at 1 µM (A375 cells (parental) [3]; Homo sapiens, A-375, 72 h, read-out: cell viability, A375 Parental, 1μΜ): 17.3%; viability at 10 µM (A375 cells (parental) [3]; Homo sapiens, A-375, 72 h, read-out: cell viability, A375 Parental, 10μΜ): 17.7%; viability at 1 µM ([4]; Homo sapiens, A-375, 72 h, read-out: cell viability, A375 GP, 1μΜ): 17.9%; viability at 10 µM ([4]; Homo sapiens, A-375, 72 h, read-out: cell viability, A375 GP, 10μΜ): 13.3%; viability at 1 µM ([5]; Homo sapiens, A-375, 72 h, read-out: cell viability, A375 XP, 1μΜ): 10.5%; viability at 10 µM ([5]; Homo sapiens, A-375, 72 h, read-out: cell viability, A375 XP, 10μΜ): 12.1%; viability at 1 µM (IGR37 cells (parental); Homo sapiens, IGR-37, 72 h, read-out: cell viability, IGR37 Parental, 1μΜ): 33%; viability at 10 µM (IGR37 cells (parental); Homo sapiens, IGR-37, 72 h, read-out: cell viability, IGR37 Parental, 10μΜ): 34%; viability at 1 µM ([6]; Homo sapiens, IGR-37, 72 h, read-out: cell viability, IGR37 GP, 1μΜ): 57.5%; viability at 10 µM ([6]; Homo sapiens, IGR-37, 72 h, read-out: cell viability, IGR37 GP, 10μΜ): 52%; viability at 1 µM ([7]; Homo sapiens, IGR-37, 72 h, read-out: cell viability, IGR37 XP, 1μΜ): 45.7%; viability at 10 µM ([7]; Homo sapiens, IGR-37, 72 h, read-out: cell viability, IGR37 XP, 10μΜ): 19%; synergistic effects with the BRAF inhibitors Vemurafenib and/or Dabrafenib (in words) (A375 cells): synergistic effects at low concentrations
2 |  | 136 | 123 | CN1CC[C@H](c2c(O)cc(O)c3c(=O)cc(-c4ccccc4Cl)oc23)[C@H](O)C1.Cl [Flavopiridol HCL] |  | 112 |  |  |  |  |  |  |  |  |  |  |  |  |  |  |  | synergistic effects with the BRAF inhibitors Vemurafenib and/or Dabrafenib (in words) (A375 cells): did not act synergistically
3 | 720 |  |  | CC(C)CC(=O)Nc1[nH]nc2c1CN(C(=O)C1CCN(C)CC1)C2(C)C [PHA-793887, reference compound] | 578 |  | 90.8 | 20.0 | 25.0 | 88.3 | 13.3 | 8.5 | 47.0 | 52.2 | 4.2 | 60.1 | 10.2 | 100.2 | 41.8 | 96.5 | 23.5 | cell viability (kinase inhibitor library screening) ([7]; IGR37 XP, 1μΜ, 72 h): 87.3%; cell viability (kinase inhibitor library screening) ([7]; IGR37 XP, 10μΜ, 72 h): 5.3%; IC50 ([10]; Homo sapiens): 1050 nM
4 | 338 |  |  | CCS(=O)(=O)c1cccc(-c2cc(C(=O)NC3CCN(C)CC3)c(C)c3[nH]c4ncc(C)cc4c23)c1 [TAK-901, reference compound] | 398 |  | 82.7 | 12.7 | 29.0 | 83.2 | 25.7 | 7.6 | 45.8 | 41.6 | 8.5 | 52.1 | 9.6 | 93.0 | 30.2 | 97.2 | 9.5 | cell viability (kinase inhibitor library screening) ([1]; 501Mel GP, 1μΜ): 88.7%; cell viability (kinase inhibitor library screening) ([7]; IGR37 XP, 1μΜ, 72 h): 73.0%; cell viability (kinase inhibitor library screening) ([7]; IGR37 XP, 10μΜ, 72 h): 4.0%; IC50 ([10]; Homo sapiens): 472 nM
5 | 1.2 |  |  | CC(=O)Nc1cccc(-n2c(=O)n(C3CC3)c(=O)c3c(Nc4ccc(I)cc4F)n(C)c(=O)c(C)c32)c1 [Trametinib] | 0.4 |  |  |  |  |  |  |  |  |  |  |  |  |  |  |  |  | IC50 ([10]; Homo sapiens): 2.4 nM; IC50 [11]: 0.7 nM
6 |  | 1550 | 1580 | CCC[C@H](NC(=O)/C(C#N)=C/c1cccc(Br)n1)c1ccccc1 [WP1130, reference compound] |  | 1620 |  |  |  |  |  |  |  |  |  |  |  |  |  |  |  | cell viability, 501Mel Parental, 1μΜ (501Mel cells (parental); 501Mel Parental, 1μΜ, in %): 93.7; cell viability, 501Mel Parental, 10μΜ (501Mel cells (parental); 501Mel Parental, 10μΜ, in %): 0.6; cell viability, 501Mel GP, 1μΜ ([1]; 501Mel GP, 1μΜ, in %): 104.8; cell viability, 501Mel GP, 10μΜ ([1]; 501Mel GP, 10μΜ, in %): -0.156; cell viability, 501Mel XP, 1μΜ ([2]; 501Mel XP, 1μΜ, in %): 103.9; cell viability, 501Mel XP, 10μΜ ([2]; 501Mel XP, 10μΜ, in %): -0.185; cell viability, A375 Parental, 1μΜ (A375 cells (parental) [3]; A375 Parental, 1μΜ, 72 h, in %): 89.3; cell viability, A375 Parental, 10μΜ (A375 cells (parental) [3]; A375 Parental, 10μΜ, 72 h, in %): 0.545; cell viability, A375 GP, 1μΜ ([4]; A375 GP, 1μΜ, 72 h, in %): 87.1; cell viability, A375 GP, 10μΜ ([4]; A375 GP, 10μΜ, 72 h, in %): 1.1; cell viability, A375 XP, 1μΜ ([5]; A375 XP, 1μΜ, 72 h, in %): 57.6; cell viability, A375 XP, 10μΜ ([5]; A375 XP, 10μΜ, 72 h, in %): 0.429; cell viability, IGR37 Parental, 1μΜ (IGR37 cells (parental); IGR37 Parental, 1μΜ, 72 h, in %): 99.4; cell viability, IGR37 Parental, 10μΜ (IGR37 cells (parental); IGR37 Parental, 10μΜ, 72 h, in %): -1.6; cell viability, IGR37 GP, 10μΜ ([6]; IGR37 GP, 10μΜ, 72 h): 1.9%; cell viability, IGR37 GP, 1μΜ ([6]; IGR37 GP, 1μΜ, 72 h, in %): 96.2; cell viability, IGR37 XP, 10μΜ ([7]; IGR37 XP, 10μΜ, 72 h): 1.1%; cell viability, IGR37 XP, 1μΜ ([7]; IGR37 XP, 1μΜ, 72 h, in %): 99.1

Row | Structure (SMILES) | IC50 ([9]; Homo sapiens) [nM] | IC50 [10] [nM] | IC50 [9] [nM] | IC50 (A375 cells (parental) [8]; [12]) [nM] | IC50 (A375 cells (parental) [8]; [13]) [nM] | cell viability (kinase inhibitor library screening) (501Mel cells (parental); 501Mel Parental, 1μΜ) [%] | cell viability (kinase inhibitor library screening) (501Mel cells (parental); 501Mel Parental, 10μΜ) [%] | cell viability (kinase inhibitor library screening) ([1]; 501Mel GP, 10μΜ) [%] | cell viability (kinase inhibitor library screening) ([2]; 501Mel XP, 1μΜ) [%] | cell viability (kinase inhibitor library screening) ([2]; 501Mel XP, 10μΜ) [%] | cell viability (kinase inhibitor library screening) (A375 cells (parental) [3]; A375 Parental, 10μΜ, 72 h) [%] | cell viability (kinase inhibitor library screening) (A375 cells (parental) [3]; A375 Parental, 1μΜ, 72 h) [%] | cell viability (kinase inhibitor library screening) ([4]; A375 GP, 1μΜ, 72 h) [%] | cell viability (kinase inhibitor library screening) ([4]; A375 GP, 10μΜ, 72 h) [%] | cell viability (kinase inhibitor library screening) ([5]; A375 XP, 1μΜ, 72 h) [%] | cell viability (kinase inhibitor library screening) ([5]; A375 XP, 10μΜ, 72 h) [%] | cell viability (kinase inhibitor library screening) (IGR37 cells (parental); IGR37 Parental, 1μΜ, 72 h) [%] | cell viability (kinase inhibitor library screening) (IGR37 cells (parental); IGR37 Parental, 10μΜ, 72 h) [%] | cell viability (kinase inhibitor library screening) ([6]; IGR37 GP, 1μΜ, 72 h) [%] | cell viability (kinase inhibitor library screening) ([6]; IGR37 GP, 10μΜ, 72 h) [%] | further results
7 | Nc1ncnc2c1c(-c1cnc3[nH]ccc3c1)nn2C1CCCC1 [PP-121, reference compound] |  | 648 | 417 |  | 550 | 55.7 | 3.0 | 5.9 | 51.0 | 2.4 | 6.5 | 45.3 | 36.1 | 8.1 | 37.9 | 4.5 | 75.3 | 14.0 | 69.2 | 9.1 | cell viability (kinase inhibitor library screening) ([1]; 501Mel GP, 1μΜ): 44.0%; cell viability (kinase inhibitor library screening) ([7]; IGR37 XP, 1μΜ, 72 h): 60.1%; cell viability (kinase inhibitor library screening) ([7]; IGR37 XP, 10μΜ, 72 h): 4.3%
